Reference: PubChem BioAssay (NCI)
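These data come from cells grown in 96-well plates and exposed to compound for 48 hours at five concentrations. At the GI50, growth is halved. TGI: concentration producing complete growth inhibition.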

Tests used:
Experiment in all cases: NCI tumour cell line growth inhibition, 48 h
CCRF-CEM leukemia = test system: CCRF-CEM leukemia
OVCAR-4 ovarian = test system: OVCAR-4 ovarian
SF-268 CNS = test system: SF-268 CNS
OVCAR-5 ovarian = test system: OVCAR-5 ovarian
NCI-H226 lung = test system: NCI-H226 lung
SK-MEL-28 melanoma = test system: SK-MEL-28 melanoma
786-0 renal = test system: 786-0 renal
SF-295 CNS = test system: SF-295 CNS
CAKI-1 renal = test system: CAKI-1 renal
SR leukemia = test system: SR leukemia

Row | Compound | GI50 (CCRF-CEM leukemia) [µM] | TGI (CCRF-CEM leukemia) [µM] | GI50 (OVCAR-4 ovarian) [µM] | TGI (OVCAR-4 ovarian) [µM] | GI50 (SF-268 CNS) [µM] | TGI (SF-268 CNS) [µM] | GI50 (OVCAR-5 ovarian) [µM] | TGI (OVCAR-5 ovarian) [µM] | GI50 (NCI-H226 lung) [µM] | TGI (NCI-H226 lung) [µM] | GI50 (SK-MEL-28 melanoma) [µM] | TGI (SK-MEL-28 melanoma) [µM] | GI50 (786-0 renal) [µM] | TGI (786-0 renal) [µM] | GI50 (SF-295 CNS) [µM] | TGI (SF-295 CNS) [µM] | GI50 (CAKI-1 renal) [µM] | TGI (CAKI-1 renal) [µM] | GI50 (SR leukemia) [µM] | TGI (SR leukemia) [µM]
1 | N#Cc1c(Br)n(C2OC(CO)C(O)C2O)c2ncnc(N)c12 (stereo not given) | 0.241 | 3.87 | 2.11 | 71.8 | 1.5 | 18.9 | 4.17 | > 100 | 9.16 | > 100 | 2.14 | 12.7 | 6.45 | > 100 | 2.07 | 30.7 | 0.677 | 2.91 | 0.827 | 4.98
2 | CC1=CC(=O)C(C(C)C)=CC1=Nc1cc(Br)c(O)c(Br)c1 | 2.72 | 18.1 | 6.29 | 19.5 | 4.49 | 17.2 | 11.8 | 30.3 | 3.87 | 19.3 | 6.82 | 22.4 | 5.03 | 17.8 | 1.4 | 5.53 | 2.46 | 8.02 | 3.45 | 15.8
3 | O=[N+]([O-])c1ccc(-c2noc(-c3ccc(Cl)cc3)c2C2=NCCN2)cc1 | – | > 100 | – | > 100 | – | > 100 | – | > 100 | – | > 100 | – | > 100 | – | > 100 | – | > 100 | – | > 100 | – | > 100
4 | CC(C)(C)c1ccc(OC(=O)Nc2ccc(O)c(C(=O)O)c2)cc1 | – | > 100 | – | > 100 | – | > 100 | – | > 100 | – | > 100 | – | > 100 | – | > 100 | – | > 100 | – | > 100 | – | > 100
5 | S=c1nc(COc2ccc(Cl)cc2Cl)[nH][nH]1 | – | > 100 | – | > 100 | – | > 100 | – | > 100 | – | > 100 | – | > 100 | – | > 100 | – | > 100 | – | > 100 | – | > 100
6 | O=[N+]([O-])c1ccc(Oc2nc(Nc3ccc(O[C@H]4CO[C@H]5[C@@H]4OC[C@@H]5O)c(Cl)c3)ncc2F)c(Cl)c1 | 0.718 | 7.2 | 1.19 | 5.73 | 1.56 | 6.92 | 2.33 | 16.8 | 0.73 | 2.5 | 1.55 | 4.78 | 1.3 | 4.24 | 1.39 | 2.92 | 2.28 | 8.11 | 0.548 | 7.79
7 | CCN1C(=O)CCCc2c1ccc(Nc1ncc(Cl)c(NC3[C@@H](C(N)=O)[C@@H]4C=C[C@H]3C4)n1)c2OC (stereo not given in full) | 0.607 | 17.9 | 1.94 | > 41.3 | 2.01 | 14.3 | 1.34 | > 22.2 | 1.56 | 12.7 | 1.56 | 6.96 | 1.87 | 9.12 | 1.45 | 13.3 | 0.919 | 4.48 | 0.0556 | 19.7
8 | COc1ccc(S(=O)(=O)NC2=NCCN2C(=S)SN2CCn3c2nsc3=S)cc1 | 7.95 | 32.4 | 18 | 44.7 | 18 | 37.8 | 17.3 | 33.3 | 15.6 | 33.2 | 21.1 | 65.1 | 20.2 | 35.4 | 20.8 | 53.6 | 17.9 | 62.8 | 17 | > 100
9 | O=C(O)c1cn(C2CC2)c2cc(N3CCN(C(=O)Nc4nc(-c5ccccc5)cs4)CC3)c(F)cc2c1=O | 0.752 | > 100 | 2.93 | > 100 | 0.474 | > 100 | 2.36 | > 100 | 2.96 | 57.5 | 0.705 | > 100 | 0.592 | 16.9 | 2.13 | 9.24 | 3.59 | > 100 | 0.35 | 73.8
10 | Oc1ccc(-c2nc3ccc4[nH]ncc4c3c3c2CCCC3)c(F)c1 | 2.05 | 11.4 | 3.38 | 16.1 | 3.27 | 14.7 | 4.41 | 17.6 | 5.26 | 69.9 | 2.74 | 12.4 | 2.5 | 12.1 | 3.81 | 14.3 | 2.69 | 9.73 | 0.464 | 7.46
11 | CCCCC(C)C(OC(=O)CC(CC(=O)O)C(=O)O)C(CC(C)CC(O)CCCCC(O)CC(O)C(C)N)OC(=O)CC(CC(=O)O)C(=O)O (stereo not given) | – | > 100 | – | > 100 | – | > 100 | – | > 100 | – | > 100 | – | > 100 | – | > 100 | – | > 100 | – | > 100 | – | > 100
12 | Cc1ccc(/C=C2\CN(C(=O)C(Cl)Cl)C/C(=C\c3ccc(C)cc3)C2=O)cc1 | 0.11 | > 100 | 0.322 | > 100 | 0.331 | 2.43 | 0.333 | 1.46 | 0.245 | 0.622 | 0.319 | 1.19 | 0.194 | 0.397 | 0.223 | 0.665 | 0.273 | 1.01 | 0.11 | > 100
13 | COc1cccc2c1-c1c(c3ccc([N+](=O)[O-])cc3c(=O)n1CCCN)C2=O | 0.183 | 4.76 | 1.55 | 3.94 | 1.15 | 2.94 | 1.88 | 3.4 | 7.67 | 34.3 | 1.86 | 3.81 | 0.479 | 0.987 | 3.1 | 14.8 | 15.1 | 62.7 | 0.0256 | 0.379
